Patent US20260007612A1, “Novel Ionizable Cationic Lipids” (Vivasor, Inc., priority 2022, published 2026)

tested on: not listed separately; experiment: Lipid nanoparticle characterization (size, PDI, zeta potential, encapsulation efficiency); format: physicochemical; details: Fresh samples; LNP of named lipid:DSPC:Cholesterol:GM020=50:10:38.5:1.5 (DS-001 25:10:38.5:1.5); 250 μg mRNA
Method: Lipid nanoparticles were prepared with the following compositions: • ALC-0315:DSPC:Cholesterol:GM020=50:10:38.5:1.5 (and buffer) (positive control) • TU-001:DSPC:Cholesterol:GM020=50:10:38.5:1.5 (and buffer) • TU-002:DSPC:Cholesterol:GM020=50:10:38.5:1.5 (and buffer) • TU-003:DSPC:Cholesterol:GM020=50:10:38.5:1.5 (and buffer) • TU-004:DSPC:Cholesterol:GM020=50:10:38.5:1.5 (and buffer) • TU-005:DSPC:Cholesterol:GM020=50:10:38.5:1.5 (and buffer) • TU-006:DSPC:Cholesterol:GM020=50:10:38.5:1.5 (and buffer) • TU-007:DSPC:Cholesterol:GM020=50:10:38.5:1.5 (and buffer) • TU-008:DSPC:Cholesterol:GM020=50:10:38.5:1.5 (and buffer) • TU-009:DSPC:Cholesterol:GM020=50:10:38.5:1.5 (and buffer) • BAE-001:DSPC:Cholesterol:GM020=50:10:38.5:1.5 (and buffer) • BAA-001:DSPC:Cholesterol:GM020=50:10:38.5:1.5 (and buffer) • DS-001:DSPC:Cholesterol:GM020=25:10:38.5:1.5 (and buffer) • KT-001:DSPC:Cholesterol:GM020=50:10:38.5:1.5 (and buffer) • Where buffer is water, Trehalose, Tris Base, sodium chloride. DSPC is 1,2-distearoyl-sn-glycero-3-phosphocholine. GM020 is DMG-PEG (1,2-Dimyristoyl-rac-glycero-3-methylpolyoxyethylene).
Table 1 summarizes the lipid nanoparticle characterization with respect to various parameters including nanoparticle size (Z avg), polydispersity index (PDI), charge (Zeta potential), encapsulation efficiency and yield.

Structure (SMILES) | Encapsulation Efficiency | PDI | Z Avg. | Zeta Potential
CCCCCCCCC(CCCCCC)C(=O)OCCCN(CCCOC(=O)C(CCCCCC)CCCCCCCC)C(=S)NCCCN1CCN(C)CC1 (stereo not shown) [TU-004] | 72.53% | 0.24 | 79.77 nm | −1.27 mV
CCCCCCCCC(CCCCCC)C(=O)OCCCCCCN(CCCCO)CCCCCCOC(=O)C(CCCCCC)CCCCCCCC (stereo not shown) [ALC-0315, reference compound] | 83.16% | 0.223 | 78.67 nm | −4.74 mV
CCCCCCCCCC1(CCCCCC)OCC(CCCCN(CCCCO)CCCCC2COC(CCCCCC)(CCCCCCCCC)O2)O1 (stereo not shown) [KT-001] | 80.60% | 0.08 | 84.7 nm | −3.30 mV
CCCCCCCCC(CCCCCC)C(=O)OCCCN(CCCOC(=O)C(CCCCCC)CCCCCCCC)C(=S)NCCCNC(C)C (stereo not shown) [TU-008] | 97.75% | 0.253 | 64.64 nm | −1.07 mV
CCCCCCCCC(CCCCCC)C(=O)OCCCCCCN(CCCCO)CCC(=O)OCCCCOC(=O)CCN(CCCCO)CCCCCCOC(=O)C(CCCCCC)CCCCCCCC (stereo not shown) [BAE-001] | 83.32% | 0.141 | 111.7 nm | −0.28 mV
CCCCCCCCC(CCCCCC)C(=O)OCCCN(CCCOC(=O)C(CCCCCC)CCCCCCCC)C(=S)NCCCN (stereo not shown) [TU-005] | 97.66% | 0.282 | 176.9 nm | −0.842 mV
CCCCCCCCC(CCCCCC)C(=O)OCCCN(CCCOC(=O)C(CCCCCC)CCCCCCCC)C(=S)NCCCN1CCCCC1C (stereo not shown) [TU-003] | 90.47% | 0.23 | 73.29 nm | −0.56 mV
CCCCCCCCC(CCCCCC)C(=O)OCCCN(CCCOC(=O)C(CCCCCC)CCCCCCCC)C(=S)NCCCN(CC)CC (stereo not shown) [TU-006] | 81.48% | 0.278 | 68.84 nm | −0.642 mV
CCCCCCCCC(CCCCCC)C(=O)OCCCN(CCCOC(=O)C(CCCCCC)CCCCCCCC)C(=S)NCCCN(CCC)CCC (stereo not shown) [TU-007] | 78.96% | 0.156 | 63.30 nm | −2.68 mV
CCCCCCCCC(CCCCCC)C(=O)OCCCN(CCCOC(=O)C(CCCCCC)CCCCCCCC)C(=S)NCCCN1CCOCC1 (stereo not shown) [TU-002] | 80.64% | 0.133 | 76.99 nm | −2.55 mV
CCCCCCCCC(CCCCCC)C(=O)OCCCN(CCCOC(=O)C(CCCCCC)CCCCCCCC)C(=S)NCCCN(CCCC)CCCC (stereo not shown) [TU-009] | 80.76% | 0.188 | 64.82 nm | −4.40 mV
CCCCCCCCC(CCCCCC)C(=O)OCCCCCCN(CCCCCCOC(=O)C(CCCCCC)CCCCCCCC)CCCCNC(=O)OCCSSCCOC(=O)NCCCCN(CCCCCCOC(=O)C(CCCCCC)CCCCCCCC)CCCCCCOC(=O)C(CCCCCC)CCCCCCCC (stereo not shown) [DS-001] | 84.50% | 0.12 | 63.0 nm | −3.74 mV

tested on: female Balb/c mice; experiment: In vivo efficacy of SARS-CoV-2 Spike mRNA in lipid nanoparticle formulation: serum anti-Spike IgG by ELISA; details: FIGS. 1C-D, intramuscular, 28 days following injection

Structure (SMILES) | amount of anti-Spike antibody (of SARS-CoV-2) produced in mice
CCCCCCCCCC1(CCCCCC)OCC(CCCCN(CCCCO)CCCCC2COC(CCCCCC)(CCCCCCCCC)O2)O1 (stereo not shown) [KT-001] | largest amounts
